Patent US8637087B2, “Treatment of interstitial cystitis using (6aR, 10aR)-Δ8-tetrahydrocannabinol-11-OIC acids” (JB Therapeutics Inc., priority 2004, dated 2014)

How the values were obtained:
[1] = system: bladder overactivity induced by intravesical administration of acetic acid solution; assay: Cystometrograms, acute bladder irritation by acetic acid infusion, i.v. drug; format: in vivo, rats; conditions: for pressure threshold (PT), % of the control value: vehicle 87.1%; for intercontraction interval (ICI), % of the control value: 0.25% acetic acid infusion, vehicle 42.9%
Description: (§1) Cystometrograms (CMGs) were performed under urethane anesthesia (1 g/kg s.c.) using a catheter inserted into the bladder through the bladder dome via a midline abdominal incision. Saline was infused at a rate of 0.04 ml/min to elicit repetitive bladder contractions. Effects of intravenous (i.v.) injection of Compound 3a on bladder overactivity induced by either intravesical administration of acetic acid solution or one day treatment with cyclophosphamide were investigated. […] Thus, these compounds can be effective for the treatment of pain and urinary frequency symptoms in patients with painful bladder syndrome/interstitial cystitis.
Saline infusion was performed for 1 to 2 hours prior to drug (or vehicle) administration and control CMGs were recorded. Compound 3a (aka CT-3 or IP-751, dissolved in 30% Cremophor EL saline solution; three concentrations of 1, 3, and 10 mg/kg) or vehicle was administrated intravenously when starting infusion of acetic acid solution (0.25%) into the bladder.
Changes in cystometric parameters such as intercontraction intervals (ICIs), maximum voiding pressure (MVP), pressure threshold (PT) and baseline pressure (BP) were evaluated before and after i.v. administration of Compound 3a or vehicle.
In the vehicle group, 0.25% acetic acid infusion induced significant bladder overactivity, as evidenced by a reduction in ICIs to 42.9% of the control value.

[2] = system: cyclophosphamide-induced bladder overactivity; assay: Cystometrograms, subacute bladder irritation by cyclophosphamide, i.v. drug; format: in vivo, rats
Description: as §1
One day after intraperitoneal injection of cyclophosphamide (CYP, 150 mg/kg), control CMGs were recorded for 1 to 2 hour prior to i.v. administration of Compound 3a or vehicle. See, example i, above. Following administration of Compound 3a, changes in cystometric parameters such as ICIs, MVP, PT and BP were recorded to evaluate the effects of Compound 3a on cyclophosphamide-induced bladder overactivity.
Bladder overactivity indicated by significant ICI reductions was observed one day after CYP injection.

[3] = Encapsulation into liposomes / formulation stability; format: physicochemical
Description: (§2) See, FIGS. 9B and 9C, respectively. Each group consisted of a minimum of seven subjects, except for those of a preliminary dose response study, where two subjects were used in each group. The preliminary dose response study indicated an optimal Compound 3a dose of 0.8 mg/ml. See, FIG. 9A. In these experiments, 1.6 mg/ml was highest concentration of Compound 3a encapsulated into liposomes; higher concentrations apparently compromised formulation stability.

[4] = system: bladder hyperactivity induced by infusing acetic acid; assay: Instillation of liposomal drug 24 h / 48 h before acetic acid-induced bladder hyperactivity (CMG); format: in vivo, rats; conditions: intravesical, two subjects per group
Description: Similarly, instillation of liposomal-Compound 3a was first conducted. Then, 24 hours and 48 hours after instillation, under urethane anesthesia, bladder hyperactivity was induced by infusing acetic acid at the concentration of 0.125% and 025%. Prior to acetic acid infusion, baseline CMG was conducted by saline infusion (0.04 ml/min) to measure intercontraction interval (ICI). A percentage reduction in ICI was measured following acetic acid infusion as an indicator of bladder irritation.
as §2

[5] = 10 mg/kg, worded as 'expected to increase'
[6] = CYP-treated rats, after administration

| Compound | pressure threshold (PT), % of the control value [1, 5] | CYP-induced bladder overactivity ([2]; 10 mg/kg i.v., CYP-treated rats) | intercontraction interval (ICI) after drug ([2]; 10 mg/kg i.v., one day after CYP 150 mg/kg i.p., control value 3.65 min, vehicle 3.89 vs. 3.94 min) | baseline pressure (BP), change [2, 6] | maximum voiding pressure (MVP), change [2, 6] | pressure threshold (PT), change [2, 6] | highest concentration encapsulated into liposomes (higher concentrations compromised formulation stability) [3] | intercontraction interval (ICI), % of the control value ([1]; 1 mg/kg i.v.) | pressure threshold (PT), % of the control value ([1]; 1 mg/kg i.v.) | intercontraction interval (ICI), % of the control value ([1]; 3 mg/kg i.v.) | pressure threshold (PT), % of the control value ([1]; 3 mg/kg i.v.) | intercontraction interval (ICI), % of the control value ([1]; 10 mg/kg i.v., P<0.05, n=6) | acetic acid-induced bladder overactivity ([1]; 10 mg/kg i.v., without affecting bladder contractions during voiding) | baseline pressure (BP), change ([1]; i.v., acetic acid infusion) | maximum voiding pressure (MVP), change ([1]; i.v., acetic acid infusion) | optimal dose in preliminary dose response study [4] |
| --- | --- | --- | --- | --- | --- | --- | --- | --- | --- | --- | --- | --- | --- | --- | --- | --- |
| CCCCCCC(C)(C)c1cc(OC(C)=O)c2c(c1)OC(C)(C)[C@@H]1CC=C(C(=O)O)C[C@@H]21 [Compound 3c, (6aR,10aR)-Δ^8-THC-DMH-11-oic Acid Acetate] | 127.2 % of the control value | – | – | – | – | – | – | – | – | – | – | – | – | – | – | – |
| CCCCCCC(C)(C)c1cc(O)c2c(c1)OC(C)(C)[C@@H]1CC=C(C(=O)O)CC21 (stereo partly drawn) [Compound 3a, (6aR,10aR)-Δ^8-THC-DMH-11-oic Acid] | 127.2 % of the control value | significantly suppressed | 5.14 min | No significant changes | No significant changes | No significant changes | 1.6 mg/mL | 45.2 % of the control value | 74.1 % of the control value | 51.1 % of the control value | 94.1 % of the control value | 112.4 % of the control value | significantly suppressed | No significant changes | No significant changes | 0.8 mg/mL |
